Laboratory results reported in US7645610B2, “Hepatocyte precursor cell lines” (Massachusetts Institute of Technology, priority 2002, dated 2010).

Columns and labels:
Assay type in all cases: cell-based, rat
Lig-1 cells [1] = assay: Colony formation efficiency, Lig-1
Lig-2 cells = assay: Colony formation efficiency, Lig-2
Lig-3 cells [2] = assay: Colony formation efficiency, Lig-3
Lig-4 cells = assay: Colony formation efficiency, Lig-4
Lig-6 cells = assay: Colony formation efficiency, Lig-6
Lig-7 cells = assay: Colony formation efficiency, Lig-7
Lig-8 cells [3] = assay: Colony formation efficiency, Lig-8
Lig-9 cells [4] = assay: Colony formation efficiency, Lig-9
Lig-13 cells [5] = assay: Colony formation efficiency, Lig-13
Lig-14 cells = assay: Colony formation efficiency, Lig-14
Lig-15 cells = assay: Colony formation efficiency, Lig-15
Xs-derived cell lines = assay: Colony formation efficiency, Xs-derived lines as a group; settings: n=8
From the text: There was a marked difference in the cell kinetics properties of early passage conventional lines (Lig-1 to -3 in Table 1) and Xs-derived lines (Lig-4 to -15 in Table 1). […] The estimated mean increase in colony formation efficiency for Xs-derived cell lines in Xs-supplemented medium was 11-fold (n=8), ranging from a 10% increase to a 40-fold increase (Lig-13 in Table 1; p<0.0001). The growth of conventional cell lines was unaffected by Xs even when the Xs concentration was doubled (data not shown). [table]

conventional cell lines = assay: Growth of conventional cell lines with Xs; settings: even when the Xs concentration was doubled (data not shown)
From the text: There was a marked difference in the cell kinetics properties of early passage conventional lines (Lig-1 to -3 in Table 1) and Xs-derived lines (Lig-4 to -15 in Table 1). […] The estimated mean increase in colony formation efficiency for Xs-derived cell lines in Xs-supplemented medium was 11-fold (n=8), ranging from a 10% increase to a 40-fold increase (Lig-13 in Table 1; p<0.0001). The growth of conventional cell lines was unaffected by Xs even when the Xs concentration was doubled (data not shown).

Lig-9 cells [6] = assay: Fc(t) assay for asymmetric cell kinetics, Lig-9
Description: To initiate the assay, 100 cells were plated in 75-cm^2 flasks. After a 16-hour growth period, pairs of new daughter cells were identified under the microscope, and their positions marked for serial examination. Thereafter, the marked microcolonies were examined at roughly ⅓ GT intervals for at least 2 generations. At each examination, the fraction of cells that divided during the previous interval was calculated as described (Sherley et al., 1995a). The estimated cell GT of examined lines was determined simultaneously as described (Sherley et al., 1995ab).
A previously described serial colony formation analyses (the “Fc[t] assay”; Sherley et al., 1995a) was used to quantify the degree of asymmetric cell kinetics by Xs-derived cell lines. The Fc(t) assay quantifies the accumulation rate of cells in micro-colonies examined by serial phase microscopy at intervals of less than one GT from the 2-cell stage (Sherley et al., 1995a). Fc(t) is calculated by summing the fractions of dividing cells determined in each interval and dividing by the total number of GTs examined. When cells divide with symmetric kinetics, the value of Fc(t) approaches 1.0, regardless of the length of the examination period. For asymmetric kinetics, in which one non-dividing daughter is produced at each cell division, Fc(t) is a declining flnction that approaches […] with increasing exam time. […]

Lig-8 cells [7] = assay: Daughter pair analysis (DPA), Lig-8; settings: Xs added, 16% in the absence of Xs, n=58 pairs
Description: (§1) Into 10-cm diameter culture dishes, an estimated 1750 cells were plated in DMEM-10% dFBS, supplemented at the Xs concentration used for derivation, and cultured for 16 hours. Medium was then replaced with either Xs-free medium or medium containing 100 μM Xs, and cells were cultured for an additional 48 h (GT=60 h). Bromo-5-deoxyuridine (BrdU) was then added to the cultures to a concentration of 5 μM for 5 hours. Detection of incorporated BrdU was performed using primary antibody Bu1-75 (Harlan), and a biotinylated secondary antibody (Vector Laboratories) with avidin-fluorescein visualization. Nuclei were detected by staining with 0.5 μg/ml DAPI (Molecular Probes). Images were captured using a Nikon TE300 microscope, Orca camera, and Openlab software (Improvision). The assay is called a “daughter pair analysis” (DPA). To perform the DPA, cells were plated in Xs-containing medium at microcolony density. After allowing 4 to 5 hours for cell adherence, parallel cultures were replaced with fresh medium that was either Xs-supplemented or Xs-free. After allowing time for cell divisions to produce “daughter pairs”, the cells were cultured for 4 hours with the thymidine analogue bromodeoxyuridine (BrdU). Cells were then fixed and evaluated for BrdU incorporation by in situ immunofluorescence.

Lig-13 cells [8] = assay: Daughter pair analysis (DPA), Lig-13; settings: independent of Xs concentration
Description: as §1

Lig-8 cells [9] = assay: Differentiation marker expression, Xs-free vs Xs-supplemented, Lig-8; design: key: −: no expression detected; +/−: weak expression; +: expression detected; !: increased expression in Xs-free conditions; *: no increased expression in Xs-free conditions
Lig-13 cells [10] = assay: Differentiation marker expression, Xs-free vs Xs-supplemented, Lig-13; design: key: −: no expression detected; +/−: weak expression; +: expression detected; !: increased expression in Xs-free conditions; *: no increased expression in Xs-free conditions
Description: To prepare cell lysates, cells were cultured until 95% confluent. After washing once with ice cold PBS, the cells were solubilized on ice in ice-cold lysis buffer (RIPA buffer; Hinds et al., 1987). The cell lysates were clarified by centrifugation at 13,000 rpm (Eppendorf™ microfuge) for 30 minutes at 4°0 C. and stored at −70°0 C. until further analysis. Soluble protein in lysates was quantified using the Bio-Rad DC™ assay. Twenty micrograms of cell lysates or 25 μl of culture medium samples were separated by SDS-PAGE (8-12% polyacrylamide) and analyzed for specific proteins by the following immunoblot procedure. Electrophoresed proteins were transferred to Hybond ECL membranes in Tris-Glycine-Methanol buffer (25 mM Tris-HCl, pH 7.5, 190 mM glycine, 20% methanol) for 1 hour at 100 volts at room temperature. Membranes were then stained with Ponceau S (0.5%) to verify uniform protein transfer and then blocked with Tris-buffered saline, 5% non-fat dried milk, 0.1% Tween-20 at room temperature for 1 hour. Following three 10-minute washes at room temperature in Tris-buffered saline, 0.1% Tween-20, the membranes were incubated with the specific primary antibodies diluted appropriately in Tris-buffered saline, 1% milk, 0.1% Tween-20 for 12-15 hours at 4° C. For albumin detection, membranes were incubated with an anti-albumin-HRP antibody (EY Laboratories) for 1 hour at room temperature. After removal of the unbound antibodies with three 10-minute washes in Tris-buffered saline-0.1% Tween-20, the membranes (except for albumin detection) were incubated with the anti-goat-HRP (1:2000) or anti-mouse HRP (1:5000) for 1 hour at room temperature. After three 10-minute washes with Tris-buffered saline-0.1% Tween-20, specifically bound HRP-conjugated antibodies were detected using the Amersham Enhanced Chemiluminescence Plus™ system. To re-probe a membrane with a different antibody, it was first incubated for 2.5 h in 0.1M glycine (pH 2.5) at room temperature. Immunohistochemical staining was performed with HRP-conjugated secondary antibodies as recommended by the supplier of primary detection antibodies. [table]

Lig-1 cells [11] = assay: Differentiation marker expression, Xs-free conditions, Lig-1; design: key: −: no expression detected; +/−: weak expression; +: expression detected; !: increased expression in Xs-free conditions; *: no increased expression in Xs-free conditions; settings: in situ immunofluorescence, confluent growth arrest in 1% serum 1-2 weeks
Lig-3 cells [12] = assay: Differentiation marker expression, Xs-free conditions, Lig-3; design: key: −: no expression detected; +/−: weak expression; +: expression detected; !: increased expression in Xs-free conditions; *: no increased expression in Xs-free conditions; settings: in situ immunofluorescence, confluent growth arrest in 1% serum 1-2 weeks
[13] = 50 μM xanthosine, 200 cells per well, 14 days
[14] = colony formation efficiency, 50 μM xanthosine vs Xs-free
[15] = in situ immunofluorescence, confluent growth arrest in 1% serum 1-2 weeks

## O=c1[nH]c(=O)c2ncn([C@@H]3O[C@H](CO)[C@@H](O)[C@H]3O)c2[nH]1 [Xs, Xanthosine]
Lig-1 cells [1]; [13]
  Colony formation efficiency Xs+ (Mean % ± SD; n = 6): 9.8 ± 2.2%
Lig-1 cells [1]; [14]
  Xs+/Xs− Ratio: 0.9
Lig-2 cells; [13]
  Colony formation efficiency Xs+ (Mean % ± SD; n = 6): 29 ± 3.7%
Lig-2 cells; [14]
  Xs+/Xs− Ratio: 1.0
Lig-3 cells [2]; [13]
  Colony formation efficiency Xs+ (Mean % ± SD; n = 6): 18 ± 3.7%
Lig-3 cells [2]; [14]
  Xs+/Xs− Ratio: 1.0
Lig-4 cells; Lig-4 (derived in 400 μM Xs), 50 μM xanthosine, 200 cells per well, 14 days
  Colony formation efficiency Xs+ (Mean % ± SD; n = 6): 8.0 ± 1.1%
Lig-4 cells; Lig-4, colony formation efficiency, 50 μM xanthosine vs Xs-free
  Xs+/Xs− Ratio: 1.5
Lig-6 cells; Lig-6 (derived in 400 μM Xs), 50 μM xanthosine, 200 cells per well, 14 days
  Colony formation efficiency Xs+ (Mean % ± SD; n = 6): 5.3 ± 1.8%
Lig-6 cells; Lig-6, colony formation efficiency, 50 μM xanthosine vs Xs-free
  Xs+/Xs− Ratio: 1.4
Lig-7 cells; Lig-7 (derived in 400 μM Xs), 50 μM xanthosine, 200 cells per well, 14 days
  Colony formation efficiency Xs+ (Mean % ± SD; n = 6): 6.7 ± 2.2%
Lig-7 cells; Lig-7, colony formation efficiency, 50 μM xanthosine vs Xs-free
  Xs+/Xs− Ratio: ≧22
Lig-8 cells [3]; Lig-8 (derived in 400 μM Xs), 50 μM xanthosine, 200 cells per well, 14 days
  Colony formation efficiency Xs+ (Mean % ± SD; n = 6): 22 ± 3.6%
Lig-8 cells [3]; Lig-8, colony formation efficiency, 50 μM xanthosine vs Xs-free
  Xs+/Xs− Ratio: 17
Lig-9 cells [4]; Lig-9 (derived in 400 μM Xs), 50 μM xanthosine, 200 cells per well, 14 days
  Colony formation efficiency Xs+ (Mean % ± SD; n = 6): 11 ± 2.6%
Lig-9 cells [4]; Lig-9, colony formation efficiency, 50 μM xanthosine vs Xs-free
  Xs+/Xs− Ratio: 1.1
Lig-13 cells [5]; Lig-13 (derived in 200 μM Xs), 50 μM xanthosine, 200 cells per well, 14 days
  Colony formation efficiency Xs+ (Mean % ± SD; n = 6): 12 ± 2.7%
Lig-13 cells [5]; Lig-13, colony formation efficiency, 50 μM xanthosine vs Xs-free
  Xs+/Xs− Ratio: 40
Lig-13 cells [5]; Lig-13, p<0.0001
  increase in colony formation efficiency in Xs-supplemented medium: 40 fold
Lig-14 cells; Lig-14 (derived in 200 μM Xs), 50 μM xanthosine, 200 cells per well, 14 days
  Colony formation efficiency Xs+ (Mean % ± SD; n = 6): 0.4 ± 0.67%
Lig-14 cells; Lig-14, colony formation efficiency, 50 μM xanthosine vs Xs-free
  Xs+/Xs− Ratio: 1.3
Lig-15 cells; Lig-15 (derived in 200 μM Xs), 50 μM xanthosine, 200 cells per well, 14 days
  Colony formation efficiency Xs+ (Mean % ± SD; n = 6): 10 ± 1.6%
Lig-15 cells; Lig-15, colony formation efficiency, 50 μM xanthosine vs Xs-free
  Xs+/Xs− Ratio: 5.3
Xs-derived cell lines
  estimated mean increase in colony formation efficiency in Xs-supplemented medium: 11 fold
Conventional cell lines
  growth of conventional cell lines with Xs: unaffected
Lig-9 cells [6]; 100 μM Xs
  effect of Xs on terminal division fraction: did not significantly affect
Lig-9 cells [6]; Xs+, 2-cell microcolonies with no division in 5 days, Xs− 0.58
  Terminal Division Fraction: 0.47
Lig-8 cells [7]
  fraction of double-BrdU(+) daughter pairs: 76%
Lig-13 cells [8]
  fraction of symmetric BrdU(+) daughter pairs: 76%
Lig-8 cells [9]; immunoblot
  Albumin (ALB) expression, change in Xs-free conditions: +!
  Cytokeratin 7 (CK7) expression, change in Xs-free conditions: +*
  α1-Antitrypsin (AAT) expression, change in Xs-free conditions: +!
  α-Fetoprotein (AFP) expression, change in Xs-free conditions: +!
Lig-8 cells [9]; [15]
  H.4 expression, change in Xs-free conditions: +!
Lig-13 cells [10]; immunoblot
  Albumin (ALB) expression, change in Xs-free conditions: +*
  Cytokeratin 7 (CK7) expression, change in Xs-free conditions: +!
  α1-Antitrypsin (AAT) expression, change in Xs-free conditions: +/−*
  α-Fetoprotein (AFP) expression, change in Xs-free conditions: +*
Lig-13 cells [10]; [15]
  H.4 expression, change in Xs-free conditions: +/−*
Lig-1 cells [11]
  H.4 expression, change in Xs-free conditions: +*
Lig-3 cells [12]
  H.4 expression, change in Xs-free conditions: +/−*
